Laboratory results from patent US20240008524A1, “CONSUMABLE” (Nicoventures Trading Limited, priority 2020, published 2024).
Values after ≈ are worked out from the molar mass of the structure shown.

Assay: Water solubility of flavoring agents and their flavor glucosides
Details: not given
For `Cc1ccc(C(C)C)cc1O` [Carvacrol], the “Flavoring Agent water solubility” value was 1.25 mg/mL.
In the case of `COc1cc(CO)ccc1O[C@@H]1O[C@H](CO)[C@@H](O)[C@H](O)[C@H]1O` [Vanillin-Alcohol glucoside, 3-methoxy-benzyl alcohol-4-O-β-D-glucopyranoside], the “increase of water solubility (glucoside vs flavoring agent)” value is reported as 32 ×.

Same assay, conditions: flavoring agent in the form of its flavor glucoside; water
With `CCCCCCO[C@@H]1O[C@H](CO)[C@@H](O)[C@H](O)[C@H]1O` [1-Hexanol glucoside, hex-1-yl-O-β-D-glucopyranoside] the “Glucoside water solubility” value was 676 mg/mL.
For `C=CC(CCCCC)O[C@@H]1O[C@H](CO)[C@@H](O)[C@H](O)[C@H]1O` (stereo partly drawn) [1-Octen-3-ol glucoside, 1-octen-3-yl-O-β-D-glucopyranoside], the “Glucoside water solubility” value was 200 mg/mL.
For `OC[C@H]1O[C@@H](OCCc2ccccc2)[C@H](O)[C@@H](O)[C@@H]1O` [2-Phenylethanol glucoside, 2-phenyleth-1-yl-O-β-D-glucopyranoside], the “Glucoside water solubility” value was 833 mg/mL.
With `CC(C)=CCCC(C)CCO[C@@H]1O[C@H](CO)[C@@H](O)[C@H](O)[C@H]1O` (stereo partly drawn) [Citronellol glucoside, 3,7-dimethyl-6-octen-1-yl-O-β-D-glucopyranoside] the “Glucoside water solubility” value was 519 mg/mL.
With `CCc1occc(=O)c1O[C@@H]1O[C@H](CO)[C@@H](O)[C@H](O)[C@H]1O` [Ethylmaltol glucoside, 2-ethyl-4H-pyran-4-one-3-O-β-D-glucopyranoside] the “Glucoside water solubility” value was 662 mg/mL.
For `C=CCc1ccc(O[C@@H]2O[C@H](CO)[C@@H](O)[C@H](O)[C@H]2O)c(OC)c1` [Eugenol glucoside, 2-methoxy-4-(2-propen-1-yl)phenyl-O-β-D-glucopyranoside], the “Glucoside water solubility” value was 15.1 mg/mL.
With `CC(C)=CCCC(C)=CCCC(C)=CCO[C@@H]1O[C@H](CO)[C@@H](O)[C@H](O)[C@H]1O` [Farnesol glucoside, 3,7,11-trimethyl-2,6,10-dodecatrien-1-yl-O-β-D-glucopyranoside] the “Glucoside water solubility” value was 1 mg/mL.
In the case of `CC12CCC(C1)C(C)(C)C2O[C@@H]1O[C@H](CO)[C@@H](O)[C@H](O)[C@H]1O` (stereo partly drawn) [Fenchol glucoside, 1,3,3-trimethyl-bicyclo[2.2.1]heptan-2-yl-O-β-D-glucopyranoside], the “Glucoside water solubility” value is reported as 4 mg/mL.
For `CC1=C(O[C@@H]2O[C@H](CO)[C@@H](O)[C@H](O)[C@H]2O)C(=O)C(C)O1` (stereo partly drawn) [Furaneol glucoside, 2,5-dimethyl-3(2H)-furanone-4-O-β-D-glucopyranoside], the “Glucoside water solubility” value was 731 mg/mL.
With `CC(C)=CCC/C(C)=C/CO[C@@H]1O[C@H](CO)[C@@H](O)[C@H](O)[C@H]1O` [Geraniol glucoside, (2E)-3,7-dimethyl-2,6-octadien-1-yl-O-β-D-glucopyranoside] the “Glucoside water solubility” value was 627 mg/mL.
In the case of `C=CC(C)(CCC=C(C)C)O[C@@H]1O[C@H](CO)[C@@H](O)[C@H](O)[C@H]1O` (stereo partly drawn) [Linalool glucoside, 1-ethenyl-1,5-dimethyl-4-hexen-1-yl-O-β-D-glucopyranoside], the “Glucoside water solubility” value is reported as 564 mg/mL.
In the case of `Cc1occc(=O)c1O[C@@H]1O[C@H](CO)[C@@H](O)[C@H](O)[C@H]1O` [Maltol glucoside, 2-methyl-4H-pyran-4-one-3-O-β-D-glucopyranoside], the “Glucoside water solubility” value is reported as 535 mg/mL.
In the case of `CCC1OC(=O)C(O[C@@H]2O[C@H](CO)[C@@H](O)[C@H](O)[C@H]2O)=C1C` (stereo partly drawn) [Maple furanone glucoside, 5-ethyl-3-hydroxy-4-methyl-2(5H)-furanone-3-O-β-D-glucopyranoside], the “Glucoside water solubility” value is reported as 772 mg/mL.
In the case of `COC(=O)c1ccccc1N[C@@H]1O[C@H](CO)[C@@H](O)[C@H](O)[C@H]1O` [Methylanthranilate glucoside, methyl-2-aminobenzoate-N-β-D-glucopyranoside], the “Glucoside water solubility” value is reported as 35 mg/mL.
With `CC1(C)C2CC=C(CO[C@@H]3O[C@H](CO)[C@@H](O)[C@H](O)[C@H]3O)C1C2` (stereo partly drawn) [Myrtenol glucoside, 6,6-dimethylbicyclo(3.1.1)hept-2-ene-2-methyl-O-β-D-glucopyranoside] the “Glucoside water solubility” value was 525 mg/mL.
With `CC(C)=CCC/C(C)=C\CO[C@@H]1O[C@H](CO)[C@@H](O)[C@H](O)[C@H]1O` [Nerol glucoside, (2Z)-3,7-dimethyl-2,6-octadien-1-yl-O-β-D-glucopyranoside] the “Glucoside water solubility” value was 16.6 mg/mL.
For `C=C(C)C1CC=C(CO[C@@H]2O[C@H](CO)[C@@H](O)[C@H](O)[C@H]2O)CC1` (stereo partly drawn) [Perillyl alcohol glucoside, p-mentha-1,8-dien-7-yl-O-β-D-glucopyranoside], the “Glucoside water solubility” value was 485 mg/mL.
For `CC1=C(O[C@@H]2O[C@H](CO)[C@@H](O)[C@H](O)[C@H]2O)C(=O)OC1C` (stereo partly drawn) [Sotolon glucoside, 4,5-dimethylfuran-2(5H)-one-3-O-β-D-glucopyranoside], the “Glucoside water solubility” value was 502 mg/mL.
For `COc1cc(CO)ccc1O[C@@H]1O[C@H](CO)[C@@H](O)[C@H](O)[C@H]1O` [Vanillin-Alcohol glucoside, 3-methoxy-benzyl alcohol-4-O-β-D-glucopyranoside], the “Glucoside water solubility” value was 62 mg/mL.
In the case of `CC/C=C\CCO[C@@H]1O[C@H](CO)[C@@H](O)[C@H](O)[C@H]1O` [cis-3-Hexen-1-ol glucoside, (3Z)-3-hexen-1-yl-O-β-D-glucopyranoside], the “Glucoside water solubility” value is reported as 598 mg/mL.
With “(2/5)-ethyl-5 (or 2)-methyl-3(2H)-furanone-4-O-β-D-glucopyranoside [Homofuraneol glucoside]” the “Glucoside water solubility” value was 749 mg/mL.
For “(S)-2-(4-methyl-3-cyclohexenyl)-2-propanyl-O-β-D-glucopyranoside [Alpha-Terpineol glucoside]”, the “Glucoside water solubility” value was 172 mg/mL.

Same assay, conditions: free flavoring agent, not bound to sugar; water
In the case of `OCCc1ccccc1` [2-Phenylethanol], the “Flavoring Agent water solubility” value is reported as 21.99 mg/mL.
With `CCc1occc(=O)c1O` [Ethylmaltol] the “Flavoring Agent water solubility” value was 24.23 mg/mL.
For `CCC1OC(C)=C(O)C1=O` (centres unmarked) [Homofuraneol], the “Flavoring Agent water solubility” value was 6.178 mg/mL.
With `CCC1OC(=O)C(O)=C1C` (centres unmarked) [Maple furanone] the “Flavoring Agent water solubility” value was 74.39 mg/mL.
For `CC1(C)C2CC=C(CO)C1C2` (centres unmarked) [Myrtenol], the “Flavoring Agent water solubility” value was 0.261 mg/mL.
In the case of `Oc1ccc2c(c1)OCO2` [Sesamol], the “Flavoring Agent water solubility” value is reported as 14.65 mg/mL.
For `CC1=C(O)C(=O)OC1C` (centres unmarked) [Sotolon], the “Flavoring Agent water solubility” value was 22.28 mg/mL.
For `COc1cc(CO)ccc1O` [Vanillin-Alcohol], the “Flavoring Agent water solubility” value was 2 mg/mL.

Same assay, conditions: free flavoring agent; at 25° C.
With `COc1cc(CO)ccc1O` [Vanillin-Alcohol] the water solubility was “approximately 2 g/I”.

Same assay, conditions: water
Compound `C=CC(O)CCCCC` (centres unmarked) [1-Octen-3-ol] has a solubility of 1.84 mg/mL (≈ 14.3 mM).
For `CC1=CCC(C(C)(C)O)CC1` (stereo not drawn) [Alpha-Terpineol], the solubility was 0.71 mg/mL (≈ 4.6 mM).
With `CC(C)=CCCC(C)CCO` (centres unmarked) [Citronellol] the solubility was 0.106 mg/mL (≈ 0.678 mM).
`C=CCc1ccc(O)c(OC)c1` [Eugenol] showed a solubility of 2.46 mg/mL (≈ 15 mM).
For `CC(C)=CCCC(C)=CCCC(C)=CCO` [Farnesol], the solubility was 0.00129 mg/mL (≈ 0.0058 mM).
`CC12CCC(C1)C(C)(C)C2O` (centres unmarked) [Fenchol] showed a solubility of 0.461 mg/mL (≈ 2.99 mM).
`CC1=C(O)C(=O)C(C)O1` (centres unmarked) [Furaneol] showed a solubility of 18.5 mg/mL (≈ 144 mM).
Compound `CC(C)=CCC/C(C)=C/CO` [Geraniol] has a solubility of 0.1 mg/mL (≈ 0.648 mM).
Compound `C=CC(C)(O)CCC=C(C)C` (centres unmarked) [Linalool] has a solubility of 0.68 mg/mL (≈ 4.41 mM).
In the case of `Cc1occc(=O)c1O` [Maltol], the solubility is reported as 10.9 mg/mL (≈ 86.4 mM).
Compound `CC1CCC(C(C)C)C(O)C1` (centres unmarked) [Menthol] has a solubility of 0.49 mg/mL (≈ 3.14 mM).
With `CC(C)=CCC/C(C)=C\CO` [Nerol] the solubility was 0.256 mg/mL (≈ 1.66 mM).
`C=C(C)[C@@H]1CC=C(CO)CC1` [Perillyl alcohol] showed a solubility of 0.471 mg/mL (≈ 3.09 mM).
Work on `CC/C=C\CCO` [cis-3-Hexen-1-ol] yielded a solubility of 16 mg/mL (≈ 160 mM).
